Values after ≈ are worked out from the molar mass of the structure shown. Read-outs that look alike come from different tables or passages of the source.
Tests used:
Format in all cases: cell-based
[1] = test system: Streptococcus pyogenes 1079; assay: MIC, microtiter broth dilution (NCCLS M100-S14), S. pyogenes 1079 (ermB)
Summary of the method: (§1)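 Microtiter broth dilution; interpretation per NCCLS M100-S14; endpoint = MIC. Stock: 40 mg/ml in DMSO.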

[2] = test system: Streptococcus pneumoniae 1175; details: microtiter broth dilution
Summary of the method: as §1

[3] = test system: Streptococcus pneumoniae 1095; details: microtiter broth dilution
Summary of the method: as §1

[4] = test system: Haemophilus influenzae 1218; assay: MIC, microtiter broth dilution (NCCLS M100-S14), H. influenzae 1218 (susceptible)
Summary of the method: as §1

[5] = test system: Streptococcus pneumoniae 1016; assay: MIC, microtiter broth dilution (NCCLS M100-S14), S. pneumoniae 1016 (susceptible)
Summary of the method: as §1

[6] = H. influenzae 1218 (susceptible)
[7] = S. pneumoniae 1016 (susceptible)

Compound | MIC S. pyogenes 1079 ([1]; Streptococcus pyogenes 1079) [µg/mL] | MIC S. pneumo. 1175 ([2]; Streptococcus pneumoniae 1175) [µg/mL] | MIC S. pneumo. 1095 ([3]; Streptococcus pneumoniae 1095) [µg/mL] | MIC H. influenzae 1218 ([4]; Haemophilus influenzae 1218) [µg/mL] | MIC S. pneumo. 1016 ([5]; Streptococcus pneumoniae 1016) [µg/mL] | MIC S. pyogenes 1079 ([1]; S. pyogenes 1079 (ermB)) [µg/mL] | MIC S. pneumo. 1175 ([2]; S. pneumoniae 1175 (mefA)) [µg/mL] | MIC S. pneumo. 1095 ([3]; S. pneumoniae 1095 (ermB)) [µg/mL] | MIC H. influenzae 1218 [4, 6] [µg/mL] | MIC S. pneumo. 1016 [5, 7] [µg/mL]
CCC1OC(=O)C(C)C(=O)C(C)C(OC2OC(C)CC(N(C)C)C2O)C(C)(OC)CC(C)C(=O)C(C)C2N(C3CN(S(=O)(=O)c4cccc(-c5nnc(C)o5)c4)C3)C(=O)OC12C (stereo not shown) [Example 3.60, 3-descladinosyl-11,12-dideoxy-6-O-methyl-3-oxo-12,11-(oxycarbonyl-(1-(3-(5-methyl-1,3,4-oxadiazol-2-yl)benzenesulfonyl)-azetidin-3-yl)imino)erythromycin A] | 4 (≈ 4.49 µM) | 0.12 (≈ 0.135 µM) | <0.06 | 2 (≈ 2.25 µM) | <0.06 |  |  |  |  | 
CCC1OC(=O)C(C)C(=O)C(C)C(OC2OC(C)CC(N(C)C)C2O)C(C)(OC)CC(C)C(=O)C(C)C2N(CC3C4CN(C(=O)c5cc(F)ccc5F)CC43)C(=O)OC12C (stereo not shown) [16.03] |  |  |  |  |  | 50 (≈ 59 µM) | 0.5 (≈ 0.59 µM) | 1.56 (≈ 1.84 µM) | 0.5 (≈ 0.59 µM) | 0.01 (≈ 0.0118 µM)
CCC1OC(=O)C(C)C(=O)C(C)C(OC2OC(C)CC(N(C)C)C2O)C(C)(OC)CC(C)C(=O)C(C)C2N(C3CN(S(=O)(=O)c4ncn5ccccc45)C3)C(=O)OC12C (stereo not shown) [Example 3.19, 3-descladinosyl-11,12-dideoxy-6-O-methyl-3-oxo-12,11-(oxycarbonyl-(1-(H-imidazo[1,5-a]pyridine-1-sulfonyl)-azetidin-3-yl)-imino)-erythromycin A] | 1 (≈ 1.18 µM) | <0.06 | <0.06 | 0.25 (≈ 0.295 µM) | <0.06 |  |  |  |  | 
CCC1OC(=O)C(C)C(=O)C(C)C(OC2OC(C)CC(N(C)C)C2O)C(C)(OC)CC(C)C(=O)C(C)C2N(CC3CN(Cc4cnc5ncccn45)C3)C(=O)OC12C (stereo not shown) [4.26] | >64.00 | 2 (≈ 2.46 µM) | 2 (≈ 2.46 µM) | 0.25 (≈ 0.308 µM) | <0.06 |  |  |  |  | 
CCC1OC(=O)C(C)C(=O)C(C)C(OC2OC(C)CC(N(C)C)C2O)C(C)(OC)CC(C)C(=O)C(C)C2N(CC3CN(Cc4cnc5cnccn45)C3)C(=O)OC12C (stereo not shown) [4.28] | >64.00 | 1 (≈ 1.23 µM) | 8 (≈ 9.84 µM) | 0.25 (≈ 0.308 µM) | <0.06 |  |  |  |  | 
CCC1OC(=O)C(C)C(=O)C(C)C(OC2OC(C)CC(N(C)C)C2O)C(C)(OC)CC(C)C(=O)C(C)C2N(C3CN(S(=O)(=O)c4ccc(-c5nnn(C)n5)cc4)C3)C(=O)OC12C (stereo not shown) [Example 3.51, 3-descladinosyl-11,12-dideoxy-6-O-methyl-3-oxo-12,11-(oxycarbonyl-(1-(4-(2-methyl-2H-tetrazol-5-yl)benzenesulfonyl)-azetidin-3-yl)-imino)-erythromycin A] | 0.5 (≈ 0.562 µM) | <0.06 | <0.06 | 2 (≈ 2.25 µM) | <0.06 |  |  |  |  | 
CCC1OC(=O)C(C)C(=O)C(C)C(OC2OC(C)CC(N(C)C)C2O)C(C)(OC)CC(C)C(=O)C(C)C2N(CC3CCCN3Cc3ccno3)C(=O)OC12C (stereo not shown) [10.01] |  |  |  |  |  | >64.00 | 0.5 (≈ 0.644 µM) | 0.25 (≈ 0.322 µM) | 1 (≈ 1.29 µM) | <0.06
CCC1OC(=O)C(C)C(=O)C(C)C(OC2OC(C)CC(N(C)C)C2O)C(C)(OC)CC(C)C(=O)C(C)C2N(CC3CN(C(=O)c4cccc5ncoc45)C3)C(=O)OC12C.O=CO (stereo not shown) [4.46] | 64 | <0.06 | 0.5 | 1 | <0.06 |  |  |  |  | 
CCC1OC(=O)C(C)C(=O)C(C)C(OC2OC(C)CC(N(C)C)C2O)C(C)(OC)CC(C)C(=O)C(C)C2N(CC3CCCN3C(=O)c3nc4cccnc4[nH]3)C(=O)OC12C (stereo not shown) [10.25] |  |  |  |  |  | >64.00 | 0.5 (≈ 0.595 µM) | <0.06 | 4 (≈ 4.76 µM) | <0.06
CCC1OC(=O)C(C)C(=O)C(C)C(OC2OC(C)CC(N(C)C)C2O)C(C)(OC)CC(C)C(=O)C(C)C2N(C3CN(Cc4ccc5nc(C)sc5n4)C3)C(=O)OC12C (stereo not shown) [Example 1.34, (2-methyl-thiazolo[5,4-b]pyridin-5-yl)methyl] | 32 (≈ 38.6 µM) | 0.12 (≈ 0.145 µM) | <0.06 | 0.5 (≈ 0.602 µM) | <0.06 |  |  |  |  | 
CCC1OC(=O)C(C)C(=O)C(C)C(OC2OC(C)CC(N(C)C)C2O)C(C)(OC)CC(C)C(=O)C(C)C2N(CC3CN(Cc4ccc5ccccc5c4)C3)C(=O)OC12C (stereo not shown) [4.29] | 16 (≈ 19.5 µM) | <0.06 | 2 (≈ 2.43 µM) | 0.12 (≈ 0.146 µM) | <0.06 |  |  |  |  | 
3-descladinosyl-11,12-dideoxy-6-O-methyl-3-oxo-12,11-(oxycarbonyl-(1-((1H-benzo[d]imidazol-4-yl)-methyl)-(R)-pyrrolidin-3-yl)-imino)-erythromycin A [Example 9.06] |  |  |  |  |  | 4 | <0.06 | <0.06 | 0.25 | <0.06
CC[C@H]1OC(=O)[C@H](C)C(=O)[C@H](C)[C@@H](O[C@@H]2O[C@H](C)C[C@H](N(C)C)[C@H]2O)[C@](C)(OC)C[C@@H](C)C(=O)[C@H](C)[C@H]2N(CC3(O)CN(C(=O)c4cc5ncccc5[nH]4)C3)C(=O)O[C@]12C.O=CO [7.32] |  |  |  |  |  | >64.00 | 2 | <0.06 | 2 | <0.06
CCC1OC(=O)C(C)(F)C(=O)C(C)C(OC2OC(C)CC(N(C)C)C2O)C(C)(OC)CC(C)C(=O)C(C)C2N(CC3CCCN3C(=O)c3nc4ccccc4[nH]3)C(=O)OC12C [Example 10.27, 3-descladinosyl-11,12-dideoxy-2-fluoro-6-O-methyl-3-oxo-12,11-(oxycarbonyl-(1-(1H-benzo[d]imidazole-2-carboxyl)-((R)-pyrrolidin-2-yl)-methyl)-imino)-erythromycin A] |  |  |  |  |  | 8 (≈ 9.32 µM) | 0.25 (≈ 0.291 µM) | <0.06 | 2 (≈ 2.33 µM) | <0.06
CCC1OC(=O)C(C)C(=O)C(C)C(OC2OC(C)CC(N(C)C)C2O)C(C)(OC)CC(C)C(=O)C(C)C2N(CC3CN(C(=O)c4cc5ccccc5cn4)C3)C(=O)OC12C.O=CO (stereo not shown) [4.39] | >64.00 | <0.06 | 8 | 4 | <0.06 |  |  |  |  | 
CCC1OC(=O)C(C)C(=O)C(C)C(OC2OC(C)CC(N(C)C)C2O)C(C)(OC)CC(C)C(=O)C(C)C2N(C3CN(C(c4ccccc4)c4ccncc4)C3)C(=O)OC12C (single isomer, unassigned) [Example 1.68, phenyl-(pyridin-4-yl)methyl (*)] | 32 (≈ 38.3 µM) | <0.06 | 4 (≈ 4.79 µM) | 4 (≈ 4.79 µM) | <0.06 |  |  |  |  | 
CCc1nn(C)c2ccc(S(=O)(=O)N3CC(N4C(=O)OC5(C)C(CC)OC(=O)C(C)C(=O)C(C)C(OC6OC(C)CC(N(C)C)C6O)C(C)(OC)CC(C)C(=O)C(C)C45)C3)cc12 (stereo not shown) [Example 3.117, 3-descladinosyl-11,12-dideoxy-6-O-methyl-3-oxo-12,11-(oxycarbonyl-(1-(3-ethyl-1-methyl-1H-indazole-5-sulfonyl)-azetidin-3-yl)-imino)-erythromycin A] | 1 (≈ 1.12 µM) | <0.063 | <0.063 | 1 (≈ 1.12 µM) | <0.063 |  |  |  |  | 
CCC1OC(=O)C(C)C(=O)C(C)C(OC2OC(C)CC(N(C)C)C2O)C(C)(OC)CC(C)C(=O)C(C)C2N(CC3CCCN3C(=O)c3cnc4ncccc4c3)C(=O)OC12C (stereo not shown) [10.38] |  |  |  |  |  | >64.00 | 0.5 (≈ 0.587 µM) | <0.06 | 1 (≈ 1.17 µM) | <0.06
CCC1OC(=O)C(C)C(=O)C(C)C(OC2OC(C)CC(N(C)C)C2O)C(C)(OC)CC(C)C(=O)C(C)C2N(C3CN(Cc4ccc(C#N)c5ncccc45)C3)C(=O)OC12C (stereo not shown) [Example 1.96, 3-descladinosyl-11,12-dideoxy-6-O-methyl-3-oxo-12,11-(oxycarbonyl-(1-(quinoline-8-carbonitrile-5-methyl)-azetidin-3-yl)-imino)-erythromycin A] | 1 (≈ 1.2 µM) | <0.063 | <0.063 | 1 (≈ 1.2 µM) | <0.063 |  |  |  |  | 
CCC1OC(=O)C(C)C(=O)C(C)C(OC2OC(C)CC(N(C)C)C2O)C(C)(OC)CC(C)C(=O)C(C)C2N(C3CN(S(=O)(=O)c4cccc(-c5cnco5)c4)C3)C(=O)OC12C (stereo not shown) [Example 3.35, 3-descladinosyl-11,12-dideoxy-6-O-methyl-3-oxo-12,11-(oxycarbonyl-(1-(3-(oxazol-5-yl)benzenesulfonyl)-azetidin-3-yl)-imino)-erythromycin A] | 1 (≈ 1.14 µM) | <0.06 | <0.06 | 0.12 (≈ 0.137 µM) | <0.06 |  |  |  |  | 
